Reference: US20210395239A1 (Hoffmann-La Roche Inc., priority 2018, published 2021)

Target: T1, hTLR9 (Homo sapiens, UniProt Q9NR96)
T1 sequence (Q9NR96 26-1032): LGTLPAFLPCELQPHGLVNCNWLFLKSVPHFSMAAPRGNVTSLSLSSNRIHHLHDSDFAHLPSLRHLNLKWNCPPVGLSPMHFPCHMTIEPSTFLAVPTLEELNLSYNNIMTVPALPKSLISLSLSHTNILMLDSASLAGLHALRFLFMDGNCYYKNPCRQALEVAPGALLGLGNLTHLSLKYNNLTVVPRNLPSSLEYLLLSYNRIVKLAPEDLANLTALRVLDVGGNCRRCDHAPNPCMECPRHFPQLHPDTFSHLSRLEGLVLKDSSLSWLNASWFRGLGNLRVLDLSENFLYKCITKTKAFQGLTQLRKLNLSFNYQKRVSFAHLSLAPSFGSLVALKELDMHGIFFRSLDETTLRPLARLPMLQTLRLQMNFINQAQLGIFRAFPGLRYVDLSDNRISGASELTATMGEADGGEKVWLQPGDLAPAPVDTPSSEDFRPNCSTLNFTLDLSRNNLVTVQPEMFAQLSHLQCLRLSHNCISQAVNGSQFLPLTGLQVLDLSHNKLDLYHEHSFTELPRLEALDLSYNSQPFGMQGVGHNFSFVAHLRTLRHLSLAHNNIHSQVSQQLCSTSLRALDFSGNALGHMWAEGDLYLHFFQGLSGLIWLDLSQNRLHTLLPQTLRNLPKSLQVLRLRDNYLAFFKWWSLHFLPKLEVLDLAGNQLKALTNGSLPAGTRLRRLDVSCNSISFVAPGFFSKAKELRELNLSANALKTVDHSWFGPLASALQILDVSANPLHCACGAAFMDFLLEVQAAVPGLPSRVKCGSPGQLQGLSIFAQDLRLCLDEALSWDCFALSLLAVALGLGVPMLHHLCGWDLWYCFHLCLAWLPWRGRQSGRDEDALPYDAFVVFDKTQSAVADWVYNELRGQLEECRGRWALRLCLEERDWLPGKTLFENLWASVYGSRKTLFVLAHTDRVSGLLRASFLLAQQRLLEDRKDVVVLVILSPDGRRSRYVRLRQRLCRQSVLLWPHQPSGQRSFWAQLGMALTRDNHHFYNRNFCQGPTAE
Test: HEK293-Blue-hTLR-9 cells assay (SEAP reporter, ODN2006 stimulation)
Type: cell-based
Design: host or cells: HEK293 (HEK-Blue hTLR9)
Conditions: HEK293-Blue-hTLR9 cells, ODN2006, 20 hrs; read-out: HEK/hTLR9 IC50
Summary of the method: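 Antagonism read as lowered SEAP reporter absorbance (620–655 nm, QUANTI-Blue, 2 h, 37 °C) in supernatants. Before that, ODN2006-stimulated HEK293-Blue cells stably expressing human TLR9 were exposed to compound dilutions at 1% final DMSO for 20 h at 37 °C.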

IC50 [nM] | SMILES
41 | C[C@@H]1CN(c2cc(=O)n(C)c3ncccc23)C[C@H](CN2CC(c3ccc(N4CC5(CN(C)C5)C4)cc3)C2)O1 [Example 180, 1-methyl-4-[(2R,6S)-2-methyl-6-[[3-[4-(6-methyl-2,6-diazaspiro[3.3]heptan-2-yl)phenyl]azetidin-1-yl]methyl]morpholin-4-yl]-1,8-naphthyridin-2-one]
65 | C[C@@H]1CN(c2ccc(C#N)c3ncccc23)C[C@H](CN2CCN(c3ccnc(NC4CNC4)n3)CC2)O1 [Example 28, 5-[(2S,6R)-2-[[4-[2-(azetidin-3-ylamino)pyrimidin-4-yl]piperazin-1-yl]methyl]-6-methyl-morpholin-4-yl]quinoline-8-carbonitrile]
32 | Cc1cc(N2CCN(C[C@H]3CN(c4ccc(C#N)c5ncccc45)C[C@@H](C)O3)CC2)nc(N2CC3(CNCCO3)C2)n1 [Example 61, 5-[(2R,6S)-2-methyl-6-[[4-[6-methyl-2-(5-oxa-2,8-diazaspiro[3.5]nonan-2-yl)pyrimidin-4-yl]piperazin-1-yl]methyl]morpholin-4-yl]quinoline-8-carbonitrile]
105 | C[C@@H]1CN(c2ccc(C#N)c3ncccc23)C[C@H](CN2CCN(c3cccc(N4CCNCC4)n3)CC2)O1 [Example 10, 5-[(2R,6S)-2-methyl-6-[[4-(6-piperazin-1-yl-2-pyridyl)piperazin-1-yl]methyl]morpholin-4-yl]quinoline-8-carbonitrile]
126 | C[C@@H]1CN(c2ccc(C#N)c3ncccc23)C[C@H](CN2CCN(c3nc(N4CCNCC4)ncc3C#N)CC2)O1 [Example 50, 5-[(2S,6R)-2-[[4-(5-cyano-2-piperazin-1-yl-pyrimidin-4-yl)piperazin-1-yl]methyl]-6-methyl-morpholin-4-yl]quinoline-8-carbonitrile]
232 | C[C@@H]1CN(c2ccc(C#N)c3ncccc23)C[C@H](CN2CCN(c3ccnc(N4CC(N)C4)n3)CC2)O1 [Example 23, 5-[(2S,6R)-2-[[4-[2-(3-aminoazetidin-1-yl)pyrimidin-4-yl]piperazin-1-yl]methyl]-6-methyl-morpholin-4-yl]quinoline-8-carbonitrile]
81 | Cc1cc(N2CCN(C[C@H]3CN(c4ccc(C#N)n5ncc(F)c45)C[C@@H](C)O3)CC2)nc(N2CCNCC2)n1 [Example 67, 3-Fluoro-4-[(2R,6S)-2-methyl-6-[[4-(6-methyl-2-piperazin-1-yl-pyrimidin-4-yl)piperazin-1-yl]methyl]morpholin-4-yl]pyrazolo[1,5-a]pyridine-7-carbonitrile]
116 | C[C@@H]1CN(c2ccc(C#N)c3ncccc23)C[C@H](CN2CCN(c3cccc(N4CCN(C)CC4)n3)CC2)O1 [Example 33, 5-[(2R,6S)-2-methyl-6-[[4-[6-(4-methylpiperazin-1-yl)-2-pyridyl]piperazin-1-yl]methyl]morpholin-4-yl]quinoline-8-carbonitrile]
32 | CO[C@H]1CN(c2nc(C)cc(N3CCN(C[C@H]4CN(c5ccc(C#N)c6ncccc56)C[C@@H](C)O4)CC3)n2)CC1N (relative stereo) [Example 59, 5-[(2R,6S)-2-methyl-6-[[4-[6-methyl-2-[trans-3-amino-4-methoxy-pyrrolidin-1-yl]pyrimidin-4-yl]piperazin-1-yl]methyl]morpholin-4-yl]quinoline-8-carbonitrile]
43 | C[C@@H]1CN(c2ccc(C#N)c3ncccc23)C[C@H](CN2CCN(c3ccnc(N4CCC(N)CC4)n3)CC2)O1 [Example 27, 5-[(2S,6R)-2-[[4-[2-(4-amino-1-piperidyl)pyrimidin-4-yl]piperazin-1-yl]methyl]-6-methyl-morpholin-4-yl]quinoline-8-carbonitrile]
134 | C[C@@H]1CN(c2ccc(C#N)c3ncccc23)C[C@H](CN2CCN(c3cccc(N4CC(N)C(F)C4)n3)CC2)O1 (stereo partly drawn) [Example 40, 5-[(2S,6R)-2-[[4-[6-(3-amino-4-fluoro-pyrrolidin-1-yl)-2-pyridyl]piperazin-1-yl]methyl]-6-methyl-morpholin-4-yl]quinoline-8-carbonitrile]
34 | Cc1cc(N2CCN(C[C@H]3CN(c4ccc(C#N)c5ncccc45)C[C@@H](C)O3)CC2)nc(N2CCOCC(N)C2)n1 (stereo partly drawn) [Example 56, 5-[(2S,6R)-2-[[4-[2-(6-amino-1,4-oxazepan-4-yl)-6-methyl-pyrimidin-4-yl]piperazin-1-yl]methyl]-6-methyl-morpholin-4-yl]quinoline-8-carbonitrile]
52 | C[C@@H]1CN(c2ccc(C#N)c3ncccc23)C[C@H](CN2CCN(c3cc(N4CCNCC4)ncn3)CC2)O1 [Example 18, 5-[(2R,6S)-2-methyl-6-[[4-(6-piperazin-1-ylpyrimidin-4-yl)piperazin-1-yl]methyl]morpholin-4-yl]quinoline-8-carbonitrile]
86 | C[C@@H]1CN(c2cc(=O)n(C)c3ncccc23)C[C@H](CN2CC(c3ccc(N4CC(F)[C@H](N)C4)cc3)C2)O1 (stereo in doubt) [Example 174, 4-[(2S,6R)-2-[[3-[4-[(3R,4R)-3-amino-4-fluoro-pyrrolidin-1-yl]phenyl]azetidin-1-yl]methyl]-6-methyl-morpholin-4-yl]-1-methyl-1,8-naphthyridin-2-one]
147 | CO[C@H]1CN(c2cccc(N3CCN(C[C@H]4CN(c5ccc(C#N)c6ncccc56)C[C@@H](C)O4)CC3)n2)C[C@H]1N [Example 42, 5-[(2S,6R)-2-[[4-[6-[(3R,4S)-3-amino-4-methoxy-pyrrolidin-1-yl]-2-pyridyl]piperazin-1-yl]methyl]-6-methyl-morpholin-4-yl]quinoline-8-carbonitrile]
186 | C[C@@H]1CN(c2ccc(C#N)c3ncccc23)C[C@H](CN2CCN(c3ncc(N4CCNCC4)cn3)CC2)O1 [Example 17, 5-[(2R,6S)-2-methyl-6-[[4-(5-piperazin-1-ylpyrimidin-2-yl)piperazin-1-yl]methyl]morpholin-4-yl]quinoline-8-carbonitrile]
186 | C[C@@H]1CN(c2ccc(C#N)n3ncc(F)c23)C[C@H](CN2CCN(c3ccc(C4(C)CNCCO4)cc3)CC2)O1 (stereo partly drawn) [Example 185, 3-fluoro-4-[(2R,6S)-2-methyl-6-[[4-[4-(2-methylmorpholin-2-yl)phenyl]piperazin-1-yl]methyl]morpholin-4-yl]pyrazolo[1,5-a]pyridine-7-carbonitrile]
157 | Cc1nc(N2CCNCC2)nc(N2CCN(C[C@H]3CN(c4ccc(C#N)c5ncccc45)C[C@@H](C)O3)CC2)c1C [Example 46, 5-[(2S,6R)-2-[[4-(5,6-dimethyl-2-piperazin-1-yl-pyrimidin-4-yl)piperazin-1-yl]methyl]-6-methyl-morpholin-4-yl]quinoline-8-carbonitrile]
46 | C[C@@H]1CN(c2ccc(C#N)c3ncccc23)C[C@H](CN2CCN(c3ccnc(N4CCN(C(=O)[C@@H]5CCCN5)CC4)n3)CC2)O1 [Example 31, 5-[(2R,6S)-2-methyl-6-[[4-[2-[4-[(2S)-pyrrolidine-2-carbonyl]piperazin-1-yl]pyrimidin-4-yl]piperazin-1-yl]methyl]morpholin-4-yl]quinoline-8-carbonitrile]
32 | Cc1cc(N2CCN(C[C@H]3CN(c4ccc(C#N)c5ncccc45)C[C@@H](C)O3)CC2)nc(N2CCNCC(O)C2)n1 (stereo partly drawn) [Example 66, 5-[(2S,6R)-2-[[4-[2-(6-hydroxy-1,4-diazepan-1-yl)-6-methyl-pyrimidin-4-yl]piperazin-1-yl]methyl]-6-methyl-morpholin-4-yl]quinoline-8-carbonitrile]
234 | C[C@@H]1CN(c2ccc(C#N)c3ncccc23)C[C@H](CN2CCN(c3cccc(N[C@H]4CNC[C@H]4F)n3)CC2)O1 [Example 37, 5-[(2S,6R)-2-[[4-[6-[[(3S,4R)-4-fluoropyrrolidin-3-yl]amino]-2-pyridyl]piperazin-1-yl]methyl]-6-methyl-morpholin-4-yl]quinoline-8-carbonitrile]
146 | C[C@@H]1CN(c2ccc(C#N)c3ncccc23)C[C@H](CN2CCN(c3nc(N4CCNCC4)nc4ccccc34)CC2)O1 [Example 49, 5-[(2R,6S)-2-methyl-6-[[4-(2-piperazin-1-ylquinazolin-4-yl)piperazin-1-yl]methyl]morpholin-4-yl]quinoline-8-carbonitrile]
